Data published in patent US10227350B2 (Gilead Sciences, Inc., priority 2016, dated 2019).

What follows are compounds tested against PI3Kβ (Homo sapiens (Human), UniProt P42338) (assay: TR-FRET enzymatic activity assay, PI3Kβ). Settings: 2× Km ATP, 2 μM PIP2, 30 minutes at 25° C., read-out: IC50-PIP-Beta.
Type: biochemical
Method in brief: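 Purified recombinant heterodimeric PI3Kβ; PIP3 formation read by TR-FRET as competition with fluorescent tracer for GRP-1 PH domain binding. Compounds incubated 30 min at 25 °C.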

Chain of PI3Kβ (P42338 whole entry): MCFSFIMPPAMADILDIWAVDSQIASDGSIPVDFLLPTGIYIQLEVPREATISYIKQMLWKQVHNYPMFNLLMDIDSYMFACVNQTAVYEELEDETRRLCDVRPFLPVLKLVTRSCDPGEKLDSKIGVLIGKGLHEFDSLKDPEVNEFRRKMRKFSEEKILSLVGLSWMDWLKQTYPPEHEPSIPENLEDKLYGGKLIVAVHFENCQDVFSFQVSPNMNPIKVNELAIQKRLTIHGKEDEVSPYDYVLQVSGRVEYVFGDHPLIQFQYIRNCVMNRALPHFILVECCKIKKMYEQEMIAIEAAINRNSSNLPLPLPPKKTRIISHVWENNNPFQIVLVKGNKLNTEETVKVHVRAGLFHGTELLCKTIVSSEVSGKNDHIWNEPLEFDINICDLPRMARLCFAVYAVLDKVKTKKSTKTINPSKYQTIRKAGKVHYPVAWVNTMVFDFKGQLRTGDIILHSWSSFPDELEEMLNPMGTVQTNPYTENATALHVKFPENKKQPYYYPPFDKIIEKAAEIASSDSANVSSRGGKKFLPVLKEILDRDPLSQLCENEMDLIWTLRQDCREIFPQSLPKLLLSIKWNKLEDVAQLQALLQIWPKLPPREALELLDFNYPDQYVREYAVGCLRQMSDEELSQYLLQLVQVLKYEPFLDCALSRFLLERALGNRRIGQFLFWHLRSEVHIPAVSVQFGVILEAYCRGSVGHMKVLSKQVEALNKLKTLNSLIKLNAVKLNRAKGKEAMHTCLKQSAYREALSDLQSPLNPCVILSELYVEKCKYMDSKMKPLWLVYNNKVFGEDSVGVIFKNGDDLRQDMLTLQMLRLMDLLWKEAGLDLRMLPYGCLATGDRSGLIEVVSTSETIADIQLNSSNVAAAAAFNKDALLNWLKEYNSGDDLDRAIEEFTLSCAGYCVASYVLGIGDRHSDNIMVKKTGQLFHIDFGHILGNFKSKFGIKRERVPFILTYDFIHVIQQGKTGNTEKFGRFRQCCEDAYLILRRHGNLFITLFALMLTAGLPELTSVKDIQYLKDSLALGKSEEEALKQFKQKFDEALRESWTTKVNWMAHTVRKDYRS
Chain of PI3Kβ (P27986 whole entry partner): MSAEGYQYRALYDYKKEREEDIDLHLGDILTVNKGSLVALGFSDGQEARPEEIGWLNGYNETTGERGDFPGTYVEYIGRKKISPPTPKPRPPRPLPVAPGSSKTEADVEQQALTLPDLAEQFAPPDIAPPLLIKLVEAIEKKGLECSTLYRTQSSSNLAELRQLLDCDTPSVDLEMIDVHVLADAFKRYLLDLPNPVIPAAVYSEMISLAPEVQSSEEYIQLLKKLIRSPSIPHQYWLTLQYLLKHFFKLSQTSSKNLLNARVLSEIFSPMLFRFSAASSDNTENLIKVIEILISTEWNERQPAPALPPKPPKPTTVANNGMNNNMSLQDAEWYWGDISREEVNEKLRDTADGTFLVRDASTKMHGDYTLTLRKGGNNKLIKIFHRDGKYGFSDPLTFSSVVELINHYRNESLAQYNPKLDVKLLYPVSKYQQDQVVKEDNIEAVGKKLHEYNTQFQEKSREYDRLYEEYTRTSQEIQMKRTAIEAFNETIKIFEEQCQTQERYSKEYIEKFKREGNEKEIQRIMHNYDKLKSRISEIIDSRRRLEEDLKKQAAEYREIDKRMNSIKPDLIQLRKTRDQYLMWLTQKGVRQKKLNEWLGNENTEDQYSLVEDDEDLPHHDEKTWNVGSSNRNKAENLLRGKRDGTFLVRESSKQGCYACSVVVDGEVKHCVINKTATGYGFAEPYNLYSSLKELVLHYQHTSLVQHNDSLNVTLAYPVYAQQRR

Row | Compound | IC50
1 | Cc1nc2c(-c3nnc[nH]3)cc(-c3cc(N)ncn3)cc2n1-c1ccnc2c(Cl)cccc12 [Example 59, 6-[3-(8-chloroquinolin-4-yl)-2-methyl-7-(4H-1,2,4-triazol-3-yl)benzimidazol-5-yl]pyrimidin-4-amine] | 270 nM
2 | Nc1cc(-c2cc(-c3nnc[nH]3)c3nc(C4CC4)n(-c4ccnc5c(F)cccc45)c3c2)ccn1 [Example 60, 4-[2-cyclopropyl-3-(8-fluoroquinolin-4-yl)-7-(4H-1,2,4-triazol-3-yl)benzimidazol-5-yl]pyridin-2-amine] | 420 nM
3 | Cc1nc2c(-c3nnc[nH]3)cc(-c3ccnc(N)c3)cc2n1-c1ccnc2c(F)cccc12 [Example 61, 4-[3-(8-fluoroquinolin-4-yl)-2-methyl-7-(4H-1,2,4-triazol-3-yl)benzimidazol-5-yl]pyridin-2-amine] | 35 nM
4 | Nc1cc(-c2cc(-c3nnc[nH]3)c3nc(C4CC4)n(-c4ccnc5c(Cl)ccc(F)c45)c3c2)ccn1 [Example 62, 4-[3-(8-chloro-5-fluoroquinolin-4-yl)-2-cyclopropyl-7-(4H-1,2,4-triazol-3-yl)benzimidazol-5-yl]pyridin-2-amine] | 8 nM
5 | CCCc1nc2c(-c3nnc[nH]3)cc(-c3ccnc(N)c3)cc2n1-c1ccnc2c(Cl)ccc(F)c12 [Example 63, 4-[3-(8-chloro-5-fluoroquinolin-4-yl)-2-propyl-7-(4H-1,2,4-triazol-3-yl)benzimidazol-5-yl]pyridin-2-amine] | 7 nM
6 | Cc1nnc(-c2cc(-c3ccnc(N)c3)cc3c2nc(C2CC2)n3-c2ccnc3c(Cl)ccc(F)c23)[nH]1 [Example 64, 4-[3-(8-chloro-5-fluoroquinolin-4-yl)-2-cyclopropyl-7-(5-methyl-4H-1,2,4-triazol-3-yl)benzimidazol-5-yl]pyridin-2-amine] | 200 nM
7 | CCCc1nc2c(-c3nnc(C)[nH]3)cc(-c3ccnc(N)c3)cc2n1-c1ccnc2c(Cl)ccc(F)c12 [Example 65, 4-[3-(8-chloro-5-fluoroquinolin-4-yl)-7-(5-methyl-4H-1,2,4-triazol-3-yl)-2-propylbenzimidazol-5-yl]pyridin-2-amine] | 16 nM
8 | Cc1nnc(-c2cc(-c3ccnc(N)c3)cc3c2nc(C(C)C)n3-c2ccnc3c(Cl)ccc(F)c23)[nH]1 [Example 66, 4-[3-(8-chloro-5-fluoroquinolin-4-yl)-7-(5-methyl-4H-1,2,4-triazol-3-yl)-2-propan-2-ylbenzimidazol-5-yl]pyridin-2-amine] | 140 nM
9 | CC(C)c1nc2c(-c3nnc[nH]3)cc(-c3ccnc(N)c3)cc2n1-c1ccnc2c(Cl)ccc(F)c12 [Example 67, 4-[3-(8-chloro-5-fluoroquinolin-4-yl)-2-propan-2-yl-7-(4H-1,2,4-triazol-3-yl)benzimidazol-5-yl]pyridin-2-amine] | 8 nM
10 | Nc1cc(-c2cc(-c3nnc[nH]3)c3nc(C4COC4)n(-c4ccnc5c(Cl)ccc(F)c45)c3c2)ccn1 [Example 68, 4-[3-(8-chloro-5-fluoroquinolin-4-yl)-2-(oxetan-3-yl)-7-(4H-1,2,4-triazol-3-yl)benzimidazol-5-yl]pyridin-2-amine] | 35 nM
11 | Nc1cc(-c2cc(-c3nnc[nH]3)c3nc(C4CC4)n(-c4ccnc5c(F)ccc(F)c45)c3c2)ccn1 [Example 69, 4-[2-cyclopropyl-3-(5,8-difluoroquinolin-4-yl)-7-(4H-1,2,4-triazol-3-yl)benzimidazol-5-yl]pyridin-2-amine] | 47 nM
12 | CCc1nc2c(-c3nnc[nH]3)cc(-c3ccnc(N)c3)cc2n1-c1ccnc2c(F)ccc(F)c12 [Example 70, 4-[3-(5,8-difluoroquinolin-4-yl)-2-ethyl-7-(4H-1,2,4-triazol-3-yl)benzimidazol-5-yl]pyridin-2-amine] | 13 nM
13 | Nc1cc(-c2cc(-c3nnc[nH]3)c3nc(CC4CC4)n(-c4ccnc5c(F)ccc(F)c45)c3c2)ccn1 [Example 71, 4-[2-(cyclopropylmethyl)-3-(5,8-difluoroquinolin-4-yl)-7-(4H-1,2,4-triazol-3-yl)benzimidazol-5-yl]pyridin-2-amine] | 13 nM
14 | CCCc1nc2c(-c3nnc[nH]3)cc(-c3ccnc(N)c3)cc2n1-c1ccnc2c(F)ccc(F)c12 [Example 72, 4-[3-(5,8-difluoroquinolin-4-yl)-2-propyl-7-(4H-1,2,4-triazol-3-yl)benzimidazol-5-yl]pyridin-2-amine] | 10 nM
15 | Nc1cc(-c2cc(-c3nnc[nH]3)c3nc(CC4CC4)n(-c4ccnc5c(Cl)cccc45)c3c2)ccn1 [Example 73, 4-[3-(8-chloroquinolin-4-yl)-2-(cyclopropylmethyl)-7-(4H-1,2,4-triazol-3-yl)benzimidazol-5-yl]pyridin-2-amine] | 8 nM
16 | Nc1cc(-c2cc(-c3nnc[nH]3)c3nc(C4CC4)n(-c4ccnc5c(Cl)cccc45)c3c2)ccn1 [Example 74, 4-[3-(8-chloroquinolin-4-yl)-2-cyclopropyl-7-(4H-1,2,4-triazol-3-yl)benzimidazol-5-yl]pyridin-2-amine] | 29 nM

Row | Compound | IC50
17 | Cc1nc2c(-c3nnc[nH]3)cc(-c3ccnc(N)c3F)cc2n1-c1ccnc2c(F)ccc(F)c12 [Example 75, 4-[3-(5,8-difluoroquinolin-4-yl)-2-methyl-7-(4H-1,2,4-triazol-3-yl)benzimidazol-5-yl]-3-fluoropyridin-2-amine] | 3 nM
18 | Cc1nc2c(-c3nnc[nH]3)cc(-c3cc(N)ncc3F)cc2n1-c1ccnc2c(F)ccc(F)c12 [Example 76, 4-[3-(5,8-difluoroquinolin-4-yl)-2-methyl-7-(4H-1,2,4-triazol-3-yl)benzimidazol-5-yl]-5-fluoropyridin-2-amine] | 50 nM
19 | CNc1nccc(-c2cc(-c3nnc[nH]3)c3nc(C)n(-c4ccnc5c(F)ccc(F)c45)c3c2)c1F [Example 77, 4-[3-(5,8-difluoroquinolin-4-yl)-2-methyl-7-(4H-1,2,4-triazol-3-yl)benzimidazol-5-yl]-3-fluoro-N-methylpyridin-2-amine] | 1400 nM
20 | CCCc1nc2c(-c3nnc[nH]3)cc(-c3ccnc(N)c3F)cc2n1-c1ccnc2c(F)ccc(F)c12 [Example 78, 4-[3-(5,8-difluoroquinolin-4-yl)-2-propyl-7-(4H-1,2,4-triazol-3-yl)benzimidazol-5-yl]-3-fluoropyridin-2-amine] | 5 nM
21 | Nc1nccc(-c2cc(-c3nnc[nH]3)c3nc(C4CC4)n(-c4ccnc5c(Cl)cccc45)c3c2)c1F [Example 79, 4-[3-(8-chloroquinolin-4-yl)-2-cyclopropyl-7-(4H-1,2,4-triazol-3-yl)benzimidazol-5-yl]-3-fluoropyridin-2-amine] | 8 nM
22 | Cc1nc2c(-c3nnc[nH]3)cc(-c3ccnc(N)c3F)cc2n1-c1ccnc2c(Cl)cccc12 [Example 80, 4-(1-(8-chloroquinolin-4-yl)-2-methyl-4-(4H-1,2,4-triazol-3-yl)-1H-benzo[d]imidazol-6-yl)-3-fluoropyridin-2-amine] | 2 nM
23 | Nc1nccc(-c2cc(-c3nnc[nH]3)c3nc(C4CC4)n(-c4ccnc5c(F)ccc(F)c45)c3c2)c1F [Example 81, 4-[2-cyclopropyl-3-(5,8-difluoroquinolin-4-yl)-7-(4H-1,2,4-triazol-3-yl)benzimidazol-5-yl]-3-fluoropyridin-2-amine] | 15 nM
24 | CNc1cc(-c2cc(-c3nnc[nH]3)c3nc(C)n(-c4ccnc5c(F)ccc(F)c45)c3c2)c(F)cn1 [Example 82, 4-[3-(5,8-difluoroquinolin-4-yl)-2-methyl-7-(4H-1,2,4-triazol-3-yl)benzimidazol-5-yl]-5-fluoro-N-methylpyridin-2-amine] | 120 nM
25 | Cc1nc2c(-c3nnc[nH]3)cc(-c3ccnc(N)c3F)cc2n1-c1ccnc2c(Cl)ccc(F)c12 [Example 83, 4-[3-(8-chloro-5-fluoroquinolin-4-yl)-2-methyl-7-(4H-1,2,4-triazol-3-yl)benzimidazol-5-yl]-3-fluoropyridin-2-amine] | 2 nM
26 | Nc1nccc(-c2cc(-c3nnc[nH]3)c3nc(C4CC4)n(-c4ccnc5c(Cl)ccc(F)c45)c3c2)c1F [Example 85, 4-[3-(8-chloro-5-fluoroquinolin-4-yl)-2-cyclopropyl-7-(4H-1,2,4-triazol-3-yl)benzimidazol-5-yl]-3-fluoropyridin-2-amine] | 3 nM
27 | Cc1nc2c(-c3nnc[nH]3)cc(-c3ccnc(N)c3F)cc2n1-c1ccnc2c(F)cccc12 [Example 86, 3-fluoro-4-[3-(8-fluoroquinolin-4-yl)-2-methyl-7-(4H-1,2,4-triazol-3-yl)benzimidazol-5-yl]pyridin-2-amine] | 7 nM
28 | CCCc1nc2c(-c3nnc[nH]3)cc(-c3ccnc(N)c3F)cc2n1-c1ccnc2c(F)cccc12 [Example 87, 3-fluoro-4-[3-(8-fluoroquinolin-4-yl)-2-propyl-7-(4H-1,2,4-triazol-3-yl)benzimidazol-5-yl]pyridin-2-amine] | 12 nM
29 | Nc1nccc(-c2cc(-c3nnc[nH]3)c3nc(C4CC4)n(-c4ccnc5c(F)cccc45)c3c2)c1F [Example 88, 4-[2-cyclopropyl-3-(8-fluoroquinolin-4-yl)-7-(4H-1,2,4-triazol-3-yl)benzimidazol-5-yl]-3-fluoropyridin-2-amine] | 110 nM
30 | Cc1cnc2c(Cl)cccc2c1-n1c(C)nc2c(-c3nnc[nH]3)cc(-c3ccnc(N)c3F)cc21 [Example 89, 4-[3-(8-chloro-3-methylquinolin-4-yl)-2-methyl-7-(4H-1,2,4-triazol-3-yl)benzimidazol-5-yl]-3-fluoropyridin-2-amine] | 3 nM
31 | Cc1cc(-c2cc(-c3nnc[nH]3)c3nc(C)n(-c4ccnc5c(F)ccc(F)c45)c3c2)cc(N)n1 [Example 90, 4-[3-(5,8-difluoroquinolin-4-yl)-2-methyl-7-(4H-1,2,4-triazol-3-yl)benzimidazol-5-yl]-6-methylpyridin-2-amine] | 340 nM
32 | Cc1nc2c(-c3nnc[nH]3)cc(-c3ccnc(N)c3Cl)cc2n1-c1ccnc2c(F)ccc(F)c12 [Example 91, 3-chloro-4-[3-(5,8-difluoroquinolin-4-yl)-2-methyl-7-(4H-1,2,4-triazol-3-yl)benzimidazol-5-yl]pyridin-2-amine] | 19 nM
